Laboratory results from patent US11312682B2, “Selective inhibitors of carbonic anhydrase” (VILNIUS UNIVERSITY, priority 2015, dated 2022).
Read-outs that look alike come from different tables or passages of the source.

How the values were obtained:
[1] = target: human recombinant CA VII (Homo sapiens, UniProt P43166); experiment: Fluorescent thermal shift assay (FTSA), binding to CA VII; details: Table 1; FTSA at 37° C. and pH 7.0; read-out: Dissociation constants, CA VII
[2] = target: human recombinant CA VB (Homo sapiens, UniProt Q9Y2D0); experiment: Fluorescent thermal shift assay (FTSA), binding to CA VB; details: Table 1; FTSA at 37° C. and pH 7.0; read-out: Dissociation constants, CA VB
[3] = target: human recombinant CA XIII (Homo sapiens, UniProt Q8N1Q1); experiment: Fluorescent thermal shift assay (FTSA), binding to CA XIII; details: Table 1; FTSA at 37° C. and pH 7.0; read-out: Dissociation constants, CA XIII
[4] = target: human recombinant CA IV (Homo sapiens, UniProt P22748); experiment: Fluorescent thermal shift assay (FTSA), binding to CA IV; details: Table 1; FTSA at 37° C. and pH 7.0; read-out: Dissociation constants, CA IV
[5] = target: human recombinant CA VI (Homo sapiens, UniProt P23280); experiment: Fluorescent thermal shift assay (FTSA), binding to CA VI; details: Table 1; FTSA at 37° C. and pH 7.0; read-out: Dissociation constants, CA VI
[6] = target: human recombinant CA III (Homo sapiens, UniProt P07451); experiment: Fluorescent thermal shift assay (FTSA), binding to CA III; details: Table 1; FTSA at 37° C. and pH 7.0; read-out: Dissociation constants, CA III
[7] = target: human recombinant CA XII (Homo sapiens, UniProt O43570); experiment: Fluorescent thermal shift assay (FTSA), binding to CA XII; details: read-out: Dissociation constants, CA XII
[8] = target: human recombinant CA IX (Homo sapiens, UniProt Q16790); experiment: Fluorescent thermal shift assay (FTSA), binding to CA IX; details: read-out: Dissociation constants, CA IX
[9] = target: human recombinant CA VA (Homo sapiens, UniProt P35218); experiment: Fluorescent thermal shift assay (FTSA), binding to CA VA; details: Table 1; FTSA at 37° C. and pH 7.0; read-out: Dissociation constants, CA VA
[10] = target: human recombinant CA XIV (Homo sapiens, UniProt Q9ULX7); experiment: Fluorescent thermal shift assay (FTSA), binding to CA XIV; details: read-out: Dissociation constants, CA XIV
[11] = target: human recombinant CA I (Homo sapiens, UniProt P00915); experiment: Fluorescent thermal shift assay (FTSA), binding to CA I; details: Table 3; FTSA at 37° C., pH 7.0; read-out: Dissociation constants, CA I
[12] = target: human recombinant CA II (Homo sapiens, UniProt P00918); experiment: Fluorescent thermal shift assay (FTSA), binding to CA II; details: read-out: Dissociation constants, CA II
[13] = Table 1, FTSA at 37° C. and pH 7.0
[14] = Table 3, FTSA at 37° C., pH 7.0

Sequence of human recombinant CA VA (P35218 39-305): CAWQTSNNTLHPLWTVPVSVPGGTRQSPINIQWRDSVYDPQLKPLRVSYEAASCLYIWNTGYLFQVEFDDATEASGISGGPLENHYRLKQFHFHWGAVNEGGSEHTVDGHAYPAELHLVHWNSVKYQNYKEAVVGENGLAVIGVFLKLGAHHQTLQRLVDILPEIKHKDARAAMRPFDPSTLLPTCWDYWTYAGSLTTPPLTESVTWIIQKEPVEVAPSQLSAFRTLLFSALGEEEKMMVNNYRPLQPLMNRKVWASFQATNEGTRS
Sequence of human recombinant CA I (P00915 whole entry): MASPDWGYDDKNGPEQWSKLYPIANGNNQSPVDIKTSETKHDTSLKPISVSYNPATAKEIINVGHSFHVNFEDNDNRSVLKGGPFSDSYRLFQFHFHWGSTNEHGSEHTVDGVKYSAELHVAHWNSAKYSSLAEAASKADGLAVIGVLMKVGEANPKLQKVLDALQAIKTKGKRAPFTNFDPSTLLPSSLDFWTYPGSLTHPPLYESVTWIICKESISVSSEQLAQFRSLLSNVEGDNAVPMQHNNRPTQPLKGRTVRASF
Sequence of human recombinant CA XIII (Q8N1Q1 whole entry): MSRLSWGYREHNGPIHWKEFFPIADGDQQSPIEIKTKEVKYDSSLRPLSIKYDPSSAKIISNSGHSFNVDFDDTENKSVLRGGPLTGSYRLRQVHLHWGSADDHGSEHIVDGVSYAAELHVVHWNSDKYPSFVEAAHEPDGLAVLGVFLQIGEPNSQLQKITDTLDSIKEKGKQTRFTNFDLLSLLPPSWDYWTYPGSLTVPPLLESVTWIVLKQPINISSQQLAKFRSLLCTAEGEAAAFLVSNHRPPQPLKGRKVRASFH
Sequence of human recombinant CA XII (O43570 25-354): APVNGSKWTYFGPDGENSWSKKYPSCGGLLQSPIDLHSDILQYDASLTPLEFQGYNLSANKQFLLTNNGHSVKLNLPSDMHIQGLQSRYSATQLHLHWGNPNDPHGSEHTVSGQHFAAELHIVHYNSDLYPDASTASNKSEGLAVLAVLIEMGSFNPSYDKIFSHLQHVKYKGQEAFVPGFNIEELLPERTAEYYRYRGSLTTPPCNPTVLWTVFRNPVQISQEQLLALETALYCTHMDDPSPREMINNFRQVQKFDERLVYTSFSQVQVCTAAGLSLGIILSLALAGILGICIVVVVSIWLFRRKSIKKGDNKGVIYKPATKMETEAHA
Sequence of human recombinant CA VII (P43166 whole entry): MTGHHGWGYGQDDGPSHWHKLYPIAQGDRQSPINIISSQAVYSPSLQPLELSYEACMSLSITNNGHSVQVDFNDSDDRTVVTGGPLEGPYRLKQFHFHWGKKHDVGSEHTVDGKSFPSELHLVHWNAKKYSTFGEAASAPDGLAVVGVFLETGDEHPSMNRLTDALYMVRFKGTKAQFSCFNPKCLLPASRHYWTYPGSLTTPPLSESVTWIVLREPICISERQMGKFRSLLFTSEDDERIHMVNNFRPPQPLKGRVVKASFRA
Sequence of human recombinant CA XIV (Q9ULX7 16-337): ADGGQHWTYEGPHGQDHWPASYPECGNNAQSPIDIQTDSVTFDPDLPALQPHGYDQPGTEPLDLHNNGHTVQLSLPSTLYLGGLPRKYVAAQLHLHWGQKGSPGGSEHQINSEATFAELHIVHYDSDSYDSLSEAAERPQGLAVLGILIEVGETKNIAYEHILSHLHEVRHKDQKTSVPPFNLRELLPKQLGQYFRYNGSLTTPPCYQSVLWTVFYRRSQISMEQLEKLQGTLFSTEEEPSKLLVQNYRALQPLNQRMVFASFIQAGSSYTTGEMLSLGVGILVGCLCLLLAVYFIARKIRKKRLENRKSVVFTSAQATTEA
Sequence of human recombinant CA VI (P23280 18-308): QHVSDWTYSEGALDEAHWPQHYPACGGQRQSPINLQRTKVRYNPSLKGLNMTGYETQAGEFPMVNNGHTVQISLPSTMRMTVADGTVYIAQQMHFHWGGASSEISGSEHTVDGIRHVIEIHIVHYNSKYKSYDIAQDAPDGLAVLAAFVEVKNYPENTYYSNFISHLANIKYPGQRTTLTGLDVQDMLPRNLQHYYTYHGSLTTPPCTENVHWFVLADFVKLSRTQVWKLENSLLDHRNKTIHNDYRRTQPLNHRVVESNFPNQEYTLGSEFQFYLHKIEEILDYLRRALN
Sequence of human recombinant CA IV (P22748 19-284): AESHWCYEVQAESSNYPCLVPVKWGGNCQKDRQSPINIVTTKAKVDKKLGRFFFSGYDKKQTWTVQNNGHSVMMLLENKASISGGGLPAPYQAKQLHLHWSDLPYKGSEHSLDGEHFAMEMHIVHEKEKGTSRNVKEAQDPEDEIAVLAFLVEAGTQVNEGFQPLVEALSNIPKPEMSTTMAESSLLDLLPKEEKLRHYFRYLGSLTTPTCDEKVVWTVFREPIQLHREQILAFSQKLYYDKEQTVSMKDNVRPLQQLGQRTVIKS
Sequence of human recombinant CA III (P07451 whole entry): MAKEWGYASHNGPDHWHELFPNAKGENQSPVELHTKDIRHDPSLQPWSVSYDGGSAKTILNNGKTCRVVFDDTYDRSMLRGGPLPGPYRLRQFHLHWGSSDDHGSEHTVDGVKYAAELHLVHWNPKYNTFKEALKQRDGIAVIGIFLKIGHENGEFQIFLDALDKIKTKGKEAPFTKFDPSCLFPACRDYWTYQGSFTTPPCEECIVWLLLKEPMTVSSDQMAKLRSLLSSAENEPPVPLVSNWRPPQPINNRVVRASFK
Sequence of human recombinant CA VB (Q9Y2D0 34-317): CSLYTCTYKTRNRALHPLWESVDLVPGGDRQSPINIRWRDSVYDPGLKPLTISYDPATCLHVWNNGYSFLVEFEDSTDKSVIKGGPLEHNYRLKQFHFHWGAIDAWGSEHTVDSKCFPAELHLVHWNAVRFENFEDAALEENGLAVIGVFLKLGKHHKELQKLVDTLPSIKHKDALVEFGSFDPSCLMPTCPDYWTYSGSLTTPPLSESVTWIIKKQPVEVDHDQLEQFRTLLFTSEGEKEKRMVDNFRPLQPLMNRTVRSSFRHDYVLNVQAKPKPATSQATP

Molecule	Kd [1]	Kd [3]	Kd [8, 13]	Kd [9]	Kd [10, 13]	Kd [11]	Kd [7, 14]	Kd [12, 14]	Kd [8, 14]	other results
2,4-dichloro-5-[2-(5-methoxybenzimidazol-1-yl)acetyl]benzenesulfonamide and 2,4-dichloro-5-[2-(6-methoxybenzimidazol-1-yl)acetyl]benzenesulfonamide [Compound 31]	300 nM	600 nM	400 nM	6 nM	40 nM					Kd [2]: 700 nM; Kd [4]: 1400 nM; Kd [5]: 1800 nM; Kd [6]: 40000 nM; Kd [7, 13]: 2800 nM
NS(=O)(=O)c1cc(C(=O)Cn2cnc3ccccc32)ccc1Cl [Compound 19, 5-[2-(benzimidazol-1-yl)acetyl]-2-chloro-benzenesulfonamide]		800 nM		0.3 nM	50 nM					Kd [4]: 600 nM; Kd [5]: 700 nM; Kd [6]: > 200000 nM
Cc1cc2ncn(CC(=O)c3ccc(Cl)c(S(N)(=O)=O)c3)c2cc1C [Compound 20, 2-chloro-5-[2-(5,6-dimethylbenzimidazol-1-yl)acetyl]benzenesulfonamide]		800 nM	600 nM	0.8 nM	50 nM					Kd [12, 13]: 600 nM; Kd [7, 13]: 3100 nM
NS(=O)(=O)c1cc(C(=O)Cn2cnc3ccccc32)c(Cl)cc1Cl [Compound 29, 5-[2-(benzimidazol-1-yl)acetyl]-2,4-dichloro-benzenesulfonamide]	100 nM	700 nM	400 nM	2 nM	20 nM					
Cc1cc2ncn(CC(=O)c3cc(S(N)(=O)=O)c(Cl)cc3Cl)c2cc1C [Compound 30, 2,4-dichloro-5-[2-(5,6-dimethylbenzimidazol-1-yl)acetyl]benzenesulfonamide]	700 nM			5 nM	300 nM					Kd [12, 13]: 500 nM
COC(=O)c1cc(S(N)(=O)=O)c(Cl)cc1S(=O)(=O)c1ccccc1 [Compound 42a, methyl 2-(benzenesulfonyl)-4-chloro-5-sulfamoyl-benzoate]										Kd ([10]; Table 2, FTSA at 37° C., pH 7.0): 0.03 nM

Second part, led by results:

Kd [1]	Kd [3]	Kd [8, 13]	Kd [9]	Kd [10, 13]	Kd [11]	Kd [7, 14]	Kd [12, 14]	Kd [8, 14]	Molecule	other results
					10000 nM	6.7 nM			COC(=O)c1cc(S(N)(=O)=O)c(Cl)cc1Sc1ccccc1 [Compound 14a, methyl 4-chloro-2-phenylsulfanyl-5-sulfamoyl-benzoate]	
					17000 nM	33 nM	250 nM	0.3 nM	COC(=O)c1cc(S(N)(=O)=O)c(Cl)cc1SC1CCCCC1 [Compound 14b, methyl 4-chloro-2-cyclohexylsulfanyl-5-sulfamoyl-benzoate]	
					6900 nM	22 nM	110 nM	2.9 nM	COC(=O)c1cc(S(N)(=O)=O)c(Cl)cc1SCc1ccccc1 [Compound 14c, methyl 2-benzylsulfanyl-4-chloro-5-sulfamoyl-benzoate]	
					13000 nM	53 nM	170 nM	13 nM	COC(=O)c1cc(S(N)(=O)=O)c(Cl)cc1SCCc1ccccc1 [Compound 14d, methyl 4-chloro-2-phenethylsulfanyl-5-sulfamoyl-benzoate]	
